In PubChem BioAssay (NCI):
Several values for one entry are separate records, joined by “and”; a condition that tells them apart may be missing. Equal entries are not always repeated.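 These data come from cells grown in 96-well plates and exposed to compound for 48 hours at five concentrations. GI50 is the concentration that inhibits growth by half. The concentration for full growth arrest is given as TGI.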

Key:
Experiment in all cases: NCI anticancer screen, dose series, 48 h
HOP-92 NSCLC = system: HOP-92 NSCLC
SK-MEL-5 melanoma = system: SK-MEL-5 melanoma
SF-539 CNS = system: SF-539 CNS
DMS 114 small cell lung = system: DMS 114 small cell lung
SF-268 CNS = system: SF-268 CNS
NCI-H23 lung = system: NCI-H23 lung
XF 498 CNS = system: XF 498 CNS
T-47D breast = system: T-47D breast
MDA-MB-231 breast = system: MDA-MB-231 breast

SMILES: C=CCC12CCC(=O)[C@@]1(C)CC=C(O)C2=O (some centres undefined)
- TGI (HOP-92 NSCLC): > 100 µM
- TGI (SK-MEL-5 melanoma): > 100 µM
- TGI (SF-539 CNS): > 100 µM
- TGI (DMS 114 small cell lung): > 100 µM
- TGI (SF-268 CNS): > 100 µM

SMILES: O=C(O)CCC1CCc2cccc(OCC(=O)O)c2C1=O (centres undefined)
- TGI (HOP-92 NSCLC): > 100 µM
- TGI (SK-MEL-5 melanoma): > 100 µM
- TGI (NCI-H23 lung): > 100 µM
- TGI (SF-539 CNS): > 100 µM
- TGI (XF 498 CNS): > 100 µM
- TGI (DMS 114 small cell lung): > 100 µM

SMILES: CCOC(=O)Nc1ccc2c(c1)N(C(=O)CCN(CC)CC)c1ccccc1S2
- TGI (T-47D breast): 87.9 µM
- TGI (MDA-MB-231 breast): 95.1 µM
- GI50 (HOP-92 NSCLC): 14.2 µM
- TGI (HOP-92 NSCLC): 67.8 µM and 73.5 µM
- GI50 (SK-MEL-5 melanoma): 36.1 µM
- TGI (SK-MEL-5 melanoma): 34.3 µM and 100 µM
- GI50 (NCI-H23 lung): 36.4 µM
- TGI (NCI-H23 lung): > 90.5 µM and 114 µM
- GI50 (SF-539 CNS): 12.7 µM
- TGI (SF-539 CNS): 48.5 µM and 43.5 µM
- GI50 (XF 498 CNS): 0.626 µM
- TGI (XF 498 CNS): 33.4 µM and 10 µM
- GI50 (DMS 114 small cell lung): 36.2 µM
- TGI (DMS 114 small cell lung): 40.6 µM and 99.6 µM
- GI50 (SF-268 CNS): 55 µM
- TGI (SF-268 CNS): > 74.6 µM and 128 µM

SMILES: O=C(Cc1ccccc1)N/N=C(/c1nc2ccc([N+](=O)[O-])cc2[nH]c1=O)C(O)c1ccccc1Cl (centres undefined)
- TGI (HOP-92 NSCLC): > 100 µM
- TGI (SK-MEL-5 melanoma): > 100 µM
- TGI (NCI-H23 lung): > 100 µM
- TGI (SF-539 CNS): > 100 µM
- TGI (XF 498 CNS): > 100 µM
- TGI (SF-268 CNS): > 100 µM

SMILES: Cc1cc2c(cc1C)[n+](=O)c(C(=O)CC(=O)C(=O)Nc1ccccc1C(C)C)c(C)n2[O-]
- TGI (HOP-92 NSCLC): > 100 µM
- TGI (SK-MEL-5 melanoma): > 100 µM
- TGI (NCI-H23 lung): > 100 µM
- TGI (SF-539 CNS): > 100 µM
- TGI (XF 498 CNS): > 100 µM
- TGI (DMS 114 small cell lung): > 100 µM
- TGI (SF-268 CNS): > 100 µM

SMILES: NC1=NC2=C(CCCC2)C(c2cccs2)S1 (centres undefined)
- TGI (HOP-92 NSCLC): > 100 µM
- TGI (SK-MEL-5 melanoma): > 100 µM
- TGI (NCI-H23 lung): > 100 µM
- TGI (SF-539 CNS): > 100 µM
- TGI (XF 498 CNS): > 100 µM
- TGI (DMS 114 small cell lung): > 100 µM
- TGI (SF-268 CNS): > 100 µM

SMILES: CN(C)c1ccc(/C=c2\sc3nnc(-c4cccnc4)n3c2=O)cc1
- TGI (HOP-92 NSCLC): > 100 µM
- TGI (SK-MEL-5 melanoma): > 100 µM
- TGI (NCI-H23 lung): > 100 µM
- TGI (SF-539 CNS): > 100 µM
- TGI (XF 498 CNS): > 100 µM
- TGI (DMS 114 small cell lung): > 100 µM
- TGI (SF-268 CNS): > 100 µM

SMILES: OCCCc1cnco1
- TGI (HOP-92 NSCLC): > 100 µM
- TGI (SK-MEL-5 melanoma): > 100 µM
- TGI (NCI-H23 lung): > 100 µM
- TGI (SF-539 CNS): > 100 µM
- TGI (XF 498 CNS): > 100 µM
- TGI (SF-268 CNS): > 100 µM

SMILES: Cn1c2cc([N+](=O)[O-])ccc2c(=O)c2c(O)cc3c(c21)C=CC(C)(C)O3
- TGI (SK-MEL-5 melanoma): > 100 µM
- TGI (NCI-H23 lung): > 100 µM
- TGI (SF-539 CNS): 32.4 µM
- TGI (XF 498 CNS): 47.7 µM
- TGI (SF-268 CNS): > 100 µM

SMILES: CC(=O)CC(=O)NC=O
- TGI (HOP-92 NSCLC): > 100 µM
- TGI (SK-MEL-5 melanoma): > 100 µM
- TGI (NCI-H23 lung): > 100 µM
- TGI (SF-539 CNS): > 100 µM
- TGI (XF 498 CNS): > 100 µM
- TGI (DMS 114 small cell lung): > 100 µM
- TGI (SF-268 CNS): > 100 µM

SMILES: O=C(N/C=C/C=C/Sc1ccccc1)OCc1ccccc1
- TGI (HOP-92 NSCLC): 52.7 µM
- TGI (SK-MEL-5 melanoma): 31.6 µM
- TGI (NCI-H23 lung): 48.9 µM
- TGI (SF-539 CNS): 30.4 µM
- TGI (XF 498 CNS): 43.9 µM
- TGI (DMS 114 small cell lung): 32.3 µM
- TGI (SF-268 CNS): 34.2 µM

SMILES: C=C1C(=O)c2cc3c(cc2C(c2cc(OC)c(OC)c(OC)c2)[C@@H]1C(=O)O)OCO3 (some centres undefined)
- TGI (HOP-92 NSCLC): 75.4 µM
- TGI (SK-MEL-5 melanoma): > 100 µM
- TGI (NCI-H23 lung): > 100 µM
- TGI (SF-539 CNS): > 100 µM
- TGI (DMS 114 small cell lung): > 100 µM

SMILES: COC1=CC(=O)OC(/C=C(C)/C=C/C2=C(C)CCCC2(C)C)C1 (centres undefined)
- TGI (HOP-92 NSCLC): > 100 µM
- TGI (SK-MEL-5 melanoma): > 100 µM
- TGI (NCI-H23 lung): > 100 µM
- TGI (SF-539 CNS): > 100 µM
- TGI (DMS 114 small cell lung): > 100 µM
- TGI (SF-268 CNS): > 100 µM

SMILES: COC(=O)c1nc(C(=O)OC)c2c([nH]c3ccccc32)c1C(=O)OC
- TGI (HOP-92 NSCLC): > 100 µM
- TGI (SK-MEL-5 melanoma): 95.1 µM
- TGI (NCI-H23 lung): > 100 µM
- TGI (SF-539 CNS): > 100 µM
- TGI (XF 498 CNS): > 100 µM
- TGI (DMS 114 small cell lung): > 100 µM

SMILES: Fc1ccc(C2SCc3nc4ccccc4n32)cc1F (centres undefined)
- TGI (SK-MEL-5 melanoma): 34.3 µM
- TGI (NCI-H23 lung): 81.9 µM
- TGI (SF-539 CNS): > 100 µM
- TGI (XF 498 CNS): > 100 µM
- TGI (DMS 114 small cell lung): 77.8 µM
- TGI (SF-268 CNS): > 100 µM

SMILES: CCCCN(CCCC)CC(C(=O)Nc1ccc([N+](=O)[O-])cc1[N+](=O)[O-])/C(C)=N\NC(=O)C[N+](C)(C)C (centres undefined)
- TGI (HOP-92 NSCLC): > 100 µM
- TGI (SK-MEL-5 melanoma): > 100 µM
- TGI (NCI-H23 lung): > 100 µM
- TGI (SF-539 CNS): > 100 µM
- TGI (XF 498 CNS): > 100 µM
- TGI (DMS 114 small cell lung): > 100 µM
- TGI (SF-268 CNS): > 100 µM

SMILES: CCc1cccc(CC)c1NC(=O)CC1SC(N)=NC1=O (centres undefined)
- TGI (HOP-92 NSCLC): > 100 µM
- TGI (SK-MEL-5 melanoma): > 100 µM
- TGI (NCI-H23 lung): > 100 µM
- TGI (SF-539 CNS): > 100 µM
- TGI (XF 498 CNS): > 100 µM
- TGI (DMS 114 small cell lung): > 100 µM
- TGI (SF-268 CNS): > 100 µM

SMILES: C=C1c2[nH]c3ccccc3c2CC(C(=O)O)N1C(O)c1ccc(S(=O)(=O)O)cc1 (centres undefined)
- TGI (HOP-92 NSCLC): > 100 µM
- TGI (SK-MEL-5 melanoma): > 100 µM
- TGI (NCI-H23 lung): > 100 µM
- TGI (SF-539 CNS): > 100 µM
- TGI (XF 498 CNS): > 100 µM
- TGI (DMS 114 small cell lung): > 100 µM
- TGI (SF-268 CNS): > 100 µM

SMILES: CC(=O)Oc1c(Br)ccc2cc(C(Br)Br)c(C(=O)c3ccccc3)nc12
- TGI (SK-MEL-5 melanoma): 38.7 µM
- TGI (NCI-H23 lung): 37.5 µM
- TGI (SF-539 CNS): 42.3 µM
- TGI (XF 498 CNS): 36.1 µM
- TGI (DMS 114 small cell lung): 49.6 µM
- TGI (SF-268 CNS): 53.5 µM

SMILES: O=C1NC(=O)C2C1C1C=C3c4ccccc4N(c4ccccc4)C32[C@H]2C(=O)NC(=O)[C@@H]12 (some centres undefined)
- TGI (HOP-92 NSCLC): > 100 µM
- TGI (SK-MEL-5 melanoma): > 100 µM
- TGI (SF-539 CNS): > 100 µM
- TGI (DMS 114 small cell lung): > 100 µM
- TGI (SF-268 CNS): > 100 µM
